≈ marks a conversion by molar mass, not a printed value.
Assays:
[1] = test system: Klebsiella pneumoniae; assay: Antibacterial activity against Klebsiella pneumoniae ATCC BAA-2146 expressing NDM-1 by agar dilution method; assay type: functional
[2] = test system: Acinetobacter calcoaceticus; assay: Antibacterial activity against Acinetobacter calcoaceticus ATCC 19606 by agar dilution method; assay type: functional
[3] = test system: Serratia marcescens; assay: Antibacterial activity against Serratia marcescens 41002 by agar dilution method; assay type: functional
[4] = test system: Klebsiella pneumoniae; assay: Antibacterial activity against extended-spectrum beta-lactamase-positive Klebsiella pneumoniae ATCC 700603 by agar dilution method; assay type: functional
[5] = test system: Staphylococcus aureus; assay: Antibacterial activity against methicillin-resistant Staphylococcus aureus ATCC 33591 by agar dilution method; assay type: functional
[6] = test system: Pseudomonas aeruginosa; assay: Antibacterial activity against Pseudomonas aeruginosa 09-14 by agar dilution method; assay type: functional
[7] = test system: Enterococcus faecalis; assay: Antibacterial activity against vancomycin-resistant Enterococcus faecalis 09-9 by agar dilution method; assay type: functional
[8] = test system: Staphylococcus epidermidis; assay: Antibacterial activity against methicillin-sensitive Staphylococcus epidermidis ATCC 12228 by agar dilution method; assay type: functional
[9] = test system: Klebsiella pneumoniae; assay: Antibacterial activity against extended-spectrum beta-lactamase-negative Klebsiella pneumoniae 7 by agar dilution method; assay type: functional
[10] = test system: Providencia rettgeri; assay: Antibacterial activity against Providencia rettgeri ATCC 31052 by agar dilution method; assay type: functional
[11] = test system: Citrobacter freundii; assay: Antibacterial activity against Citrobacter freundii ATCC 43864 by agar dilution method; assay type: functional
[12] = test system: Escherichia coli; assay: Antibacterial activity against extended-spectrum beta-lactamase-negative Escherichia coli 09-20 by agar dilution method; assay type: functional
[13] = test system: Enterococcus faecalis; assay: Antibacterial activity against vancomycin-sensitive Enterococcus faecalis ATCC 29212 by agar dilution method; assay type: functional
[14] = test system: Enterococcus faecalis; assay: Antibacterial activity against vancomycin-sensitive Enterococcus faecalis 09-8 by agar dilution method; assay type: functional
[15] = test system: Pseudomonas aeruginosa; assay: Antibacterial activity against Pseudomonas aeruginosa ATCC 27853 by agar dilution method; assay type: functional
[16] = test system: Enterococcus faecium; assay: Antibacterial activity against vancomycin-resistant Enterococcus faecium 05-8 by agar dilution method; assay type: functional
[17] = test system: Staphylococcus aureus; assay: Antibacterial activity against methicillin-sensitive Staphylococcus aureus 09-6 by agar dilution method; assay type: functional
[18] = test system: Staphylococcus epidermidis; assay: Antibacterial activity against methicillin-resistant Staphylococcus epidermidis 09-3 by agar dilution method; assay type: functional
[19] = test system: Escherichia coli; assay: Antibacterial activity against extended-spectrum beta-lactamase-positive Escherichia coli 09-1 by agar dilution method; assay type: functional
[20] = test system: Salmonella typhi; assay: Antibacterial activity against Salmonella typhi H901 by agar dilution method; assay type: functional, Salmonella enterica subsp. enterica serovar Typhi; conditions: Salmonella enterica
[21] = test system: Enterococcus faecium; assay: Antibacterial activity against vancomycin-sensitive Enterococcus faecium 09-10 by agar dilution method; assay type: functional
[22] = test system: Proteus mirabilis; assay: Antibacterial activity against Proteus mirabilis 09-1 by agar dilution method; assay type: functional
[23] = test system: Klebsiella pneumoniae; assay: Antibacterial activity against extended-spectrum beta-lactamase-positive Klebsiella pneumoniae 09-25 by agar dilution method; assay type: functional
[24] = test system: Escherichia coli; assay: Antibacterial activity against extended-spectrum beta-lactamase-negative Escherichia coli ATCC 25922 by agar dilution method; assay type: functional
[25] = test system: Escherichia coli; assay: Antibacterial activity against extended-spectrum beta-lactamase-negative Escherichia coli 1515 by agar dilution method; assay type: functional
[26] = Cytotoxicity against HEK293T cells after 48 hrs by MTS assay; assay type: cell-based, HEK-293T; conditions: human
[27] = test system: Morganella morganii; assay: Antibacterial activity against Morganella morganii ATCC 25830 by agar dilution method; assay type: functional
[28] = test system: Klebsiella pneumoniae; assay: Antibacterial activity against extended-spectrum beta-lactamase-negative Klebsiella pneumoniae 09-8 by agar dilution method; assay type: functional
[29] = test system: Proteus vulgaris; assay: Antibacterial activity against Proteus vulgaris ATCC 29905 by agar dilution method; assay type: functional
[30] = test system: Staphylococcus aureus; assay: Antibacterial activity against methicillin-sensitive Staphylococcus aureus 15 by agar dilution method; assay type: functional
[31] = test system: Enterococcus faecalis; assay: Antibacterial activity against vancomycin-resistant Enterococcus faecalis ATCC 51299 by agar dilution method; assay type: functional
[32] = test system: Staphylococcus aureus; assay: Antibacterial activity against methicillin-resistant Staphylococcus aureus 09-13 by agar dilution method; assay type: functional
[33] = test system: Staphylococcus epidermidis; assay: Antibacterial activity against methicillin-sensitive Staphylococcus epidermidis 09-9 by agar dilution method; assay type: functional
[34] = test system: Enterococcus faecium; assay: Antibacterial activity against vancomycin-resistant Enterococcus faecium ATCC 700221 by agar dilution method; assay type: functional
[35] = test system: Staphylococcus aureus; assay: Antibacterial activity against methicillin-sensitive Staphylococcus aureus ATCC 29213 by agar dilution method; assay type: functional
[36] = test system: Enterobacter cloacae; assay: Antibacterial activity against Enterobacter cloacae 45301 by agar dilution method; assay type: functional
[37] = test system: Klebsiella aerogenes; assay: Antibacterial activity against Enterobacter aerogenes 45102 by agar dilution method; assay type: functional
[38] = test system: Pseudomonas aeruginosa; assay: Antibacterial activity against Pseudomonas aeruginosa PAO1 by agar dilution method; assay type: functional

Structure (SMILES) | MIC [1] [µg/mL] | MIC [2] [µg/mL] | MIC [3] [µg/mL] | MIC [4] [µg/mL] | MIC [6] [µg/mL] | MIC [8] [µg/mL] | MIC [9] [µg/mL] | MIC [10] [µg/mL] | MIC [11] [µg/mL] | MIC [12] [µg/mL] | MIC [13] [µg/mL] | MIC [14] [µg/mL] | MIC [15] [µg/mL] | MIC [19] [µg/mL] | MIC [21] [µg/mL] | MIC [22] [µg/mL] | MIC [23] [µg/mL] | MIC [24] [µg/mL] | MIC [25] [µg/mL] | CC50 at 48 h [26] [µg/mL] | other results
CCNC(=N)c1ccc2cc(-c3ccc(Oc4ccc(-c5cc6ccc(C(=N)NCC)cc6[nH]5)cc4)cc3)[nH]c2c1 | 128 (≈ 237 µM) | > 128 | 128 (≈ 237 µM) | 64 (≈ 118 µM) | 128 (≈ 237 µM) | 1 (≈ 1.85 µM) | 128 (≈ 237 µM) | 128 (≈ 237 µM) | 128 (≈ 237 µM) | 64 (≈ 118 µM) | 2 (≈ 3.7 µM) | 2 (≈ 3.7 µM) | 128 (≈ 237 µM) | 64 (≈ 118 µM) | 16 (≈ 29.6 µM) | 128 (≈ 237 µM) | 64 (≈ 118 µM) | 64 (≈ 118 µM) | 64 (≈ 118 µM) | 36.3 (≈ 67.1 µM) | MIC [5]: 1 µg/mL (≈ 1.85 µM); MIC [7]: 1 to 8 µg/mL (≈ 1.85 to 14.8 µM); MIC [16]: 4 µg/mL (≈ 7.4 µM); MIC [17]: 2 µg/mL (≈ 3.7 µM); MIC [18]: 1 µg/mL (≈ 1.85 µM); MIC [20]: 64 µg/mL (≈ 118 µM); MIC [27]: 128 µg/mL (≈ 237 µM); MIC [28]: 64 µg/mL (≈ 118 µM); MIC [29]: 128 µg/mL (≈ 237 µM); MIC [30]: 1 µg/mL (≈ 1.85 µM); MIC [31]: 2 µg/mL (≈ 3.7 µM); MIC [32]: 1 µg/mL (≈ 1.85 µM); MIC [33]: 1 µg/mL (≈ 1.85 µM); MIC [34]: 2 µg/mL (≈ 3.7 µM); MIC [35]: 2 µg/mL (≈ 3.7 µM); MIC [36]: 64 µg/mL (≈ 118 µM); MIC [37]: 64 µg/mL (≈ 118 µM); MIC [38]: > 128 µg/mL
CCC(C)NC(=N)c1ccc2cc(-c3ccc(Oc4ccc(-c5cc6ccc(C(=N)NC(C)CC)cc6[nH]5)cc4)cc3)[nH]c2c1 (stereo unspecified) | 32 (≈ 53.6 µM) | 64 (≈ 107 µM) | 64 (≈ 107 µM) | 64 (≈ 107 µM) | 64 (≈ 107 µM) | 0.5 (≈ 0.838 µM) | 64 (≈ 107 µM) | 64 (≈ 107 µM) | 32 (≈ 53.6 µM) | 32 (≈ 53.6 µM) | 2 (≈ 3.35 µM) | 2 (≈ 3.35 µM) | 32 (≈ 53.6 µM) | 32 (≈ 53.6 µM) | 8 (≈ 13.4 µM) | 64 (≈ 107 µM) | 32 (≈ 53.6 µM) | 16 (≈ 26.8 µM) | 16 (≈ 26.8 µM) | 40.4 (≈ 67.7 µM) | MIC [5]: 2 µg/mL (≈ 3.35 µM); MIC [7]: 8 µg/mL (≈ 13.4 µM); MIC [16]: 2 µg/mL (≈ 3.35 µM); MIC [17]: 2 µg/mL (≈ 3.35 µM); MIC [18]: 1 µg/mL (≈ 1.68 µM); MIC [20]: 16 µg/mL (≈ 26.8 µM); MIC [27]: 16 µg/mL (≈ 26.8 µM); MIC [28]: 16 µg/mL (≈ 26.8 µM); MIC [29]: 32 µg/mL (≈ 53.6 µM); MIC [30]: 2 µg/mL (≈ 3.35 µM); MIC [31]: 2 µg/mL (≈ 3.35 µM); MIC [32]: 1 µg/mL (≈ 1.68 µM); MIC [33]: 2 µg/mL (≈ 3.35 µM); MIC [34]: 1 µg/mL (≈ 1.68 µM); MIC [35]: 2 µg/mL (≈ 3.35 µM); MIC [36]: 32 µg/mL (≈ 53.6 µM); MIC [37]: 32 µg/mL (≈ 53.6 µM); MIC [38]: 64 µg/mL (≈ 107 µM)
c1cc(-c2cc3ccc(C4=NCCCN4)cc3[nH]2)ccc1Oc1ccc(-c2cc3ccc(C4=NCCCN4)cc3[nH]2)cc1 | 128 (≈ 227 µM) | > 128 | 128 (≈ 227 µM) | > 128 | > 128 | 0.25 (≈ 0.443 µM) | ≥ 128 | 128 (≈ 227 µM) | 128 (≈ 227 µM) | 128 (≈ 227 µM) | 4 (≈ 7.08 µM) | 2 (≈ 3.54 µM) | > 128 | 64 (≈ 113 µM) | 16 (≈ 28.3 µM) | > 128 | ≥ 128 | 64 (≈ 113 µM) | 64 (≈ 113 µM) | 43.1 (≈ 76.3 µM) | MIC [27]: 32 µg/mL (≈ 56.7 µM); MIC [28]: 128 µg/mL (≈ 227 µM); MIC [29]: 128 µg/mL (≈ 227 µM); MIC [33]: 1 µg/mL (≈ 1.77 µM); MIC [36]: 64 µg/mL (≈ 113 µM); MIC [37]: 128 µg/mL (≈ 227 µM); MIC [38]: > 128 µg/mL
N=C(NC1CC1)c1ccc2cc(-c3ccc(Oc4ccc(-c5cc6ccc(C(=N)NC7CC7)cc6[nH]5)cc4)cc3)[nH]c2c1 | > 128 | > 128 | > 128 | > 128 | > 128 | 1 (≈ 1.77 µM) | > 128 | > 128 | > 128 | 128 (≈ 227 µM) | 4 (≈ 7.08 µM) | 4 (≈ 7.08 µM) | > 128 | 128 (≈ 227 µM) | 8 (≈ 14.2 µM) | > 128 | > 128 | 128 (≈ 227 µM) | 128 (≈ 227 µM) | 36.9 (≈ 65.3 µM) | MIC [5]: 4 µg/mL (≈ 7.08 µM); MIC [7]: 8 µg/mL (≈ 14.2 µM); MIC [16]: 4 µg/mL (≈ 7.08 µM); MIC [17]: 4 µg/mL (≈ 7.08 µM); MIC [18]: 2 µg/mL (≈ 3.54 µM); MIC [20]: > 128 µg/mL; MIC [27]: 128 µg/mL (≈ 227 µM); MIC [28]: > 128 µg/mL; MIC [29]: > 128 µg/mL; MIC [30]: 4 µg/mL (≈ 7.08 µM); MIC [31]: 4 µg/mL (≈ 7.08 µM); MIC [32]: 4 µg/mL (≈ 7.08 µM); MIC [33]: 4 µg/mL (≈ 7.08 µM); MIC [34]: 4 µg/mL (≈ 7.08 µM); MIC [35]: 4 µg/mL (≈ 7.08 µM); MIC [36]: > 128 µg/mL; MIC [37]: 128 µg/mL (≈ 227 µM); MIC [38]: > 128 µg/mL

From ChEMBL document CHEMBL4002623, “Synthesis and in vitro activity of dicationic indolyl diphenyl ethers as novel potent antibiotic agents against drug-resistant bacteria” (Bioorg Med Chem Lett, 2017)
